Key:
Homo sapiens [1] = species: Homo sapiens; assay: Liver toxicity in human assessed as induction of drug-induced liver injury by measuring severity class index
Homo sapiens [2] = species: Homo sapiens; assay: Liver toxicity in human assessed as induction of drug-induced liver injury by measuring verified drug-induced liver injury concern status
For DILI severity class in this document: key of the grades not given here.

CC(C)c1nc(CN(C)C(=O)N[C@H](C(=O)N[C@@H](Cc2ccccc2)C[C@H](O)[C@H](Cc2ccccc2)NC(=O)OCc2cncs2)C(C)C)cs1 [RITONAVIR]
DILI_severity_class (Homo sapiens [1]): 8 | DILI_Concern (Homo sapiens [2]): Most-Dili-Concern

CCN(C)C(=O)Oc1cccc([C@H](C)N(C)C)c1 [RIVASTIGMINE]
DILI_severity_class (Homo sapiens [1]): 3 | DILI_Concern (Homo sapiens [2]): Less-Dili-Concern

CN(C)CCc1c[nH]c2ccc(Cn3cncn3)cc12 [RIZATRIPTAN]
DILI_severity_class (Homo sapiens [1]): 0 | DILI_Concern (Homo sapiens [2]): No-Dili-Concern

CCCN(CCC)CCc1cccc2c1CC(=O)N2 [ROPINIROLE]
DILI_severity_class (Homo sapiens [1]): 4 | DILI_Concern (Homo sapiens [2]): Less-Dili-Concern

CN(CCOc1ccc(CC2SC(=O)NC2=O)cc1)c1ccccn1 (stereo not drawn) [ROSIGLITAZONE]
DILI_severity_class (Homo sapiens [1]): 3 | DILI_Concern (Homo sapiens [2]): Less-Dili-Concern

CC(C)c1nc(N(C)S(C)(=O)=O)nc(-c2ccc(F)cc2)c1/C=C/[C@@H](O)C[C@@H](O)CC(=O)O [ROSUVASTATIN]
DILI_severity_class (Homo sapiens [1]): 3 | DILI_Concern (Homo sapiens [2]): Less-Dili-Concern

[82Rb+].[Cl-] [RUBIDIUM CHLORIDE RB 82]
DILI_severity_class (Homo sapiens [1]): 0 | DILI_Concern (Homo sapiens [2]): No-Dili-Concern

NC(=O)c1cn(Cc2c(F)cccc2F)nn1 [RUFINAMIDE]
DILI_severity_class (Homo sapiens [1]): 3 | DILI_Concern (Homo sapiens [2]): Ambiguous-Dili-Concern

O=C(Oc1ccccc1C(=O)O)c1ccccc1O [SALSALATE]
DILI_severity_class (Homo sapiens [1]): 3 | DILI_Concern (Homo sapiens [2]): Less-Dili-Concern

N#C[C@@H]1C[C@@H]2C[C@@H]2N1C(=O)[C@@H](N)C12CC3CC(CC(O)(C3)C1)C2 [SAXAGLIPTIN ANHYDROUS]
DILI_severity_class (Homo sapiens [1]): 0 | DILI_Concern (Homo sapiens [2]): No-Dili-Concern

CN1[C@@H]2C[C@@H](OC(=O)[C@H](CO)c3ccccc3)C[C@H]1[C@@H]1O[C@@H]12 [SCOPOLAMINE]
DILI_severity_class (Homo sapiens [1]): 0 | DILI_Concern (Homo sapiens [2]): No-Dili-Concern

C=CCC1(C(C)CCC)C(=O)NC(=O)NC1=O (stereo not drawn) [SECOBARBITAL]
DILI_severity_class (Homo sapiens [1]): 3 | DILI_Concern (Homo sapiens [2]): Ambiguous-Dili-Concern

C#CCN(C)[C@H](C)Cc1ccccc1 [SELEGILINE]
DILI_severity_class (Homo sapiens [1]): 0 | DILI_Concern (Homo sapiens [2]): No-Dili-Concern

CN[C@H]1CC[C@@H](c2ccc(Cl)c(Cl)c2)c2ccccc21 [SERTRALINE]
DILI_severity_class (Homo sapiens [1]): 3 | DILI_Concern (Homo sapiens [2]): Less-Dili-Concern

CC(C)CC(N(C)C)C1(c2ccc(Cl)cc2)CCC1 (stereo not drawn) [SIBUTRAMINE]
DILI_severity_class (Homo sapiens [1]): 4 | DILI_Concern (Homo sapiens [2]): Less-Dili-Concern

C[C@H](Cc1cc2c(c(C(N)=O)c1)N(CCCO)CC2)NCCOc1ccccc1OCC(F)(F)F [SILODOSIN]
DILI_severity_class (Homo sapiens [1]): 3 | DILI_Concern (Homo sapiens [2]): Ambiguous-Dili-Concern

CSCC[C@H](NC(=O)[C@H](Cc1ccc(OS(=O)(=O)O)cc1)NC(=O)[C@@H](N)CC(=O)O)C(=O)NCC(=O)N[C@@H](Cc1c[nH]c2ccccc12)C(=O)N[C@@H](CCSC)C(=O)N[C@@H](CC(=O)O)C(=O)N[C@@H](Cc1ccccc1)C(N)=O [SINCALIDE]
DILI_severity_class (Homo sapiens [1]): 0 | DILI_Concern (Homo sapiens [2]): No-Dili-Concern

CO[C@H]1C[C@@H]2CC[C@@H](C)[C@@](O)(O2)C(=O)C(=O)N2CCCC[C@H]2C(=O)O[C@H]([C@H](C)C[C@@H]2CC[C@@H](O)[C@H](OC)C2)CC(=O)[C@H](C)/C=C(\C)[C@@H](O)[C@@H](OC)C(=O)[C@H](C)C[C@H](C)/C=C/C=C/C=C/1C [SIROLIMUS]
DILI_severity_class (Homo sapiens [1]): 8 | DILI_Concern (Homo sapiens [2]): Less-Dili-Concern

N[C@@H](CC(=O)N1CCn2c(nnc2C(F)(F)F)C1)Cc1cc(F)c(F)cc1F [SITAGLIPTIN]
DILI_severity_class (Homo sapiens [1]): 4 | DILI_Concern (Homo sapiens [2]): Less-Dili-Concern

Cc1cc2c(cc1CC(=O)c1sccc1S(=O)(=O)Nc1onc(C)c1Cl)OCO2 [SITAXENTAN]
DILI_severity_class (Homo sapiens [1]): 8 | DILI_Concern (Homo sapiens [2]): Most-Dili-Concern

O=C([O-])O.[Na+] [SODIUM BICARBONATE]
DILI_severity_class (Homo sapiens [1]): 0 | DILI_Concern (Homo sapiens [2]): No-Dili-Concern

CC(O)C(=O)[O-].[Na+] (stereo not drawn) [SODIUM LACTATE]
DILI_severity_class (Homo sapiens [1]): 0 | DILI_Concern (Homo sapiens [2]): No-Dili-Concern

O=C(O[C@H]1CN2CCC1CC2)N1CCc2ccccc2[C@@H]1c1ccccc1 [SOLIFENACIN]
DILI_severity_class (Homo sapiens [1]): 3 | DILI_Concern (Homo sapiens [2]): Ambiguous-Dili-Concern

CNC(=O)c1cc(Oc2ccc(NC(=O)Nc3ccc(Cl)c(C(F)(F)F)c3)cc2)ccn1 [SORAFENIB]
DILI_severity_class (Homo sapiens [1]): 8 | DILI_Concern (Homo sapiens [2]): Most-Dili-Concern

OC[C@@H](O)[C@@H](O)[C@H](O)[C@@H](O)CO [SORBITOL]
DILI_severity_class (Homo sapiens [1]): 0 | DILI_Concern (Homo sapiens [2]): No-Dili-Concern

CC(C)NCC(O)c1ccc(NS(C)(=O)=O)cc1 (stereo not drawn) [SOTALOL]
DILI_severity_class (Homo sapiens [1]): 3 | DILI_Concern (Homo sapiens [2]): Ambiguous-Dili-Concern

CN[C@@H]1[C@H](O)[C@H](NC)[C@H]2O[C@@]3(O)C(=O)C[C@@H](C)O[C@H]3O[C@@H]2[C@H]1O [SPECTINOMYCIN]
DILI_severity_class (Homo sapiens [1]): 3 | DILI_Concern (Homo sapiens [2]): Ambiguous-Dili-Concern

CC(=O)S[C@@H]1CC2=CC(=O)CC[C@]2(C)[C@H]2CC[C@@]3(C)[C@@H](CC[C@@]34CCC(=O)O4)[C@H]12 [SPIRONOLACTONE]
DILI_severity_class (Homo sapiens [1]): 2 | DILI_Concern (Homo sapiens [2]): Less-Dili-Concern

Cc1cn([C@H]2C=C[C@@H](CO)O2)c(=O)[nH]c1=O [STAVUDINE]
DILI_severity_class (Homo sapiens [1]): 8 | DILI_Concern (Homo sapiens [2]): Most-Dili-Concern

[H]/N=C(/N)N[C@H]1[C@H](O)[C@@H](O)[C@H](O[C@@H]2O[C@@H](C)[C@](O)(C=O)[C@H]2O[C@@H]2O[C@@H](CO)[C@H](O)[C@@H](O)[C@@H]2NC)[C@@H](N/C(N)=N\[H])[C@@H]1O [STREPTOMYCIN]
DILI_severity_class (Homo sapiens [1]): 0 | DILI_Concern (Homo sapiens [2]): No-Dili-Concern

CN(N=O)C(=O)N[C@@H](C=O)[C@@H](O)[C@H](O)[C@H](O)CO [STREPTOZOCIN]
DILI_severity_class (Homo sapiens [1]): 3 | DILI_Concern (Homo sapiens [2]): Ambiguous-Dili-Concern

NC(=O)NS(=O)(=O)c1ccc(N)cc1 [SULFACARBAMIDE]
DILI_severity_class (Homo sapiens [1]): 8 | DILI_Concern (Homo sapiens [2]): Most-Dili-Concern

Nc1ccc(S(=O)(=O)Nc2ncccn2)cc1 [SULFADIAZINE]
DILI_severity_class (Homo sapiens [1]): 3 | DILI_Concern (Homo sapiens [2]): Less-Dili-Concern

Cc1nnc(NS(=O)(=O)c2ccc(N)cc2)s1 [SULFAMETHIZOLE]
DILI_severity_class (Homo sapiens [1]): 0 | DILI_Concern (Homo sapiens [2]): Less-Dili-Concern

O=C(O)c1cc(/N=N/c2ccc(S(=O)(=O)Nc3ccccn3)cc2)ccc1O [SULFASALAZINE]
DILI_severity_class (Homo sapiens [1]): 5 | DILI_Concern (Homo sapiens [2]): Most-Dili-Concern

Nc1ccc(S(=O)(=O)Nc2nccs2)cc1 [SULFATHIAZOLE]
DILI_severity_class (Homo sapiens [1]): 8 | DILI_Concern (Homo sapiens [2]): Most-Dili-Concern

CCCCCCCCNC(C)C(O)c1ccc(SC(C)C)cc1 (stereo not drawn) [SULOCTIDIL]
DILI_severity_class (Homo sapiens [1]): 8 | DILI_Concern (Homo sapiens [2]): Most-Dili-Concern

CCN(CC)CCNC(=O)c1c(C)[nH]c(/C=C2\C(=O)Nc3ccc(F)cc32)c1C [SUNITINIB]
DILI_severity_class (Homo sapiens [1]): 8 | DILI_Concern (Homo sapiens [2]): Most-Dili-Concern

C[N+](C)(C)CCOC(=O)CCC(=O)OCC[N+](C)(C)C [SUXAMETHONIUM]
DILI_severity_class (Homo sapiens [1]): 0 | DILI_Concern (Homo sapiens [2]): No-Dili-Concern

C=CC[C@@H]1/C=C(\C)C[C@H](C)C[C@H](OC)[C@H]2O[C@@](O)(C(=O)C(=O)N3CCCC[C@H]3C(=O)O[C@H](/C(C)=C/[C@@H]3CC[C@@H](O)[C@H](OC)C3)[C@H](C)[C@@H](O)CC1=O)[C@H](C)C[C@@H]2OC [TACROLIMUS ANHYDROUS]
DILI_severity_class (Homo sapiens [1]): 5 | DILI_Concern (Homo sapiens [2]): Less-Dili-Concern

CCOc1ccccc1OCCN[C@H](C)Cc1ccc(OC)c(S(N)(=O)=O)c1 [TAMSULOSIN]
DILI_severity_class (Homo sapiens [1]): 0 | DILI_Concern (Homo sapiens [2]): Less-Dili-Concern

CC[C@@H](c1cccc(O)c1)[C@@H](C)CN(C)C [TAPENTADOL]
DILI_severity_class (Homo sapiens [1]): 0 | DILI_Concern (Homo sapiens [2]): No-Dili-Concern

Cc1nc(C)c2c(n1)N(Cc1ccc(-c3ccccc3-c3nnn[nH]3)cc1)C(=O)CC2 [TASOSARTAN]
DILI_severity_class (Homo sapiens [1]): 8 | DILI_Concern (Homo sapiens [2]): Most-Dili-Concern

CCCCCNC(=N)N/N=C/c1c[nH]c2ccc(OC)cc12 [TEGASEROD]
DILI_severity_class (Homo sapiens [1]): 3 | DILI_Concern (Homo sapiens [2]): Ambiguous-Dili-Concern

Cc1cn([C@@H]2C[C@@H](O)[C@H](CO)O2)c(=O)[nH]c1=O [TELBIVUDINE]
DILI_severity_class (Homo sapiens [1]): 2 | DILI_Concern (Homo sapiens [2]): Ambiguous-Dili-Concern

CC[C@H]1OC(=O)[C@H](C)C(=O)[C@H](C)[C@@H](O[C@@H]2O[C@H](C)C[C@H](N(C)C)[C@H]2O)[C@](C)(OC)C[C@@H](C)C(=O)[C@H](C)[C@H]2N(CCCCn3cnc(-c4cccnc4)c3)C(=O)O[C@]12C [TELITHROMYCIN]
DILI_severity_class (Homo sapiens [1]): 8 | DILI_Concern (Homo sapiens [2]): Most-Dili-Concern

CN1C(=O)C(O)N=C(c2ccccc2)c2cc(Cl)ccc21 (stereo not drawn) [TEMAZEPAM]
DILI_severity_class (Homo sapiens [1]): 3 | DILI_Concern (Homo sapiens [2]): Ambiguous-Dili-Concern

Cn1nnc2c(C(N)=O)ncn2c1=O [TEMOZOLOMIDE]
DILI_severity_class (Homo sapiens [1]): 4 | DILI_Concern (Homo sapiens [2]): Less-Dili-Concern

CO[C@H]1C[C@@H]2CC[C@@H](C)[C@@](O)(O2)C(=O)C(=O)N2CCCC[C@H]2C(=O)O[C@H]([C@H](C)C[C@@H]2CC[C@@H](OC(=O)C(C)(CO)CO)[C@H](OC)C2)CC(=O)[C@H](C)/C=C(\C)[C@@H](O)[C@@H](OC)C(=O)[C@H](C)C[C@H](C)/C=C/C=C/C=C/1C [TEMSIROLIMUS]
DILI_severity_class (Homo sapiens [1]): 0 | DILI_Concern (Homo sapiens [2]): No-Dili-Concern

COc1cc([C@@H]2c3cc4c(cc3[C@@H](O[C@@H]3O[C@@H]5CO[C@@H](c6cccs6)O[C@H]5[C@H](O)[C@H]3O)[C@H]3COC(=O)[C@H]23)OCO4)cc(OC)c1O [TENIPOSIDE]
DILI_severity_class (Homo sapiens [1]): 3 | DILI_Concern (Homo sapiens [2]): Less-Dili-Concern

C[C@H](Cn1cnc2c(N)ncnc21)OCP(=O)(O)O [TENOFOVIR ANHYDROUS]
DILI_severity_class (Homo sapiens [1]): 3 | DILI_Concern (Homo sapiens [2]): Less-Dili-Concern

COc1cc2nc(N3CCN(C(=O)C4CCCO4)CC3)nc(N)c2cc1OC (stereo not drawn) [TERAZOSIN]
DILI_severity_class (Homo sapiens [1]): 0 | DILI_Concern (Homo sapiens [2]): No-Dili-Concern

CN(C/C=C/C#CC(C)(C)C)Cc1cccc2ccccc12 [TERBINAFINE]
DILI_severity_class (Homo sapiens [1]): 8 | DILI_Concern (Homo sapiens [2]): Most-Dili-Concern

CC(C)(C)NCC(O)c1cc(O)cc(O)c1 (stereo not drawn) [TERBUTALINE]
DILI_severity_class (Homo sapiens [1]): 3 | DILI_Concern (Homo sapiens [2]): Less-Dili-Concern

— ChEMBL document CHEMBL4028802, “DILIrank: the largest reference drug list ranked by the risk for developing drug-induced liver injury in humans” (Drug Discov Today, 2016)
